Experimental data published in ChEMBL document CHEMBL3352725, “An uncharged oxetanyl sulfoxide as a covalent modifier for improving aqueous solubility” (ACS Med Chem Lett, 2014).
Values after ≈ are worked out from the molar mass of the structure shown.

Assay: Aqueous solubility of the compound in H2O after 24 hrs incubation at 30 degC by LCMS analysis
Format: physicochemical
Details: buffer, 24 h

solubility [µg/mL] | SMILES
550 (≈ 1860 µM) | Cc1ccc(Cl)c(Nc2ccccc2C(=O)O)c1Cl [MECLOFENAMIC ACID]

Same assay, conditions: water

solubility at 24 h [µg/mL] | SMILES
820 | COc1ccc2cc([C@H](C)C(=O)OCC[S+]([O-])CC3(C)COC3)ccc2c1 (mixture of isomers)
260 | C[C@H](CCC(=O)OCC[S+]([O-])CC1(C)COC1)[C@H]1CC[C@H]2[C@@H]3CC[C@@H]4C[C@H](O)CC[C@]4(C)[C@H]3CC[C@]12C (mixture of isomers)
67 (≈ 208 µM) | CCOC(=O)Nc1ccc2sc3c(c2c1)SCCNC3=O
440 (≈ 968 µM) | CC1(C[S+]([O-])CCOC(=O)Nc2ccc3sc4c(c3c2)SCCNC4=O)COC1 (centres undefined)
190 (≈ 355 µM) | CC1(C[S+]([O-])CCOC(=O)N2CCN(c3cc4c(cc3F)c(=O)c(C(=O)O)cn4C3CC3)CC2)COC1 (centres undefined)
13 (≈ 34.7 µM) | COc1ccc2cc([C@H](C)C(=O)OCCSCC3(C)COC3)ccc2c1
1000 (≈ 2190 µM) | Cc1cc(NS(=O)(=O)c2ccc(NC(=O)OCC[S+]([O-])CC3(C)COC3)cc2)no1 (centres undefined)
63 (≈ 155 µM) | COc1ccc2cc([C@H](C)C(=O)OCCS(=O)(=O)CC3(C)COC3)ccc2c1
250 (≈ 548 µM) | Cc1ccc(Cl)c(Nc2ccccc2C(=O)OCC[S+]([O-])CC2(C)COC2)c1Cl (centres undefined)
270 (≈ 843 µM) | COc1ccc2cc([C@H](C)C(=O)OCC[S+](C)[O-])ccc2c1 (some centres undefined)

SMILES | solubility at 24 h [µg/mL]
CC(C)C[C@@H](/C=C/CC(=O)NC1CC(C)(C)N([O])C(C)(C)C1)NC(=O)OCC[S+]([O-])CC1(C)COC1 (mixture of isomers) | 24000
CC(C)C[C@@H](/C=C/CC(=O)NC1CC(C)(C)N([O])C(C)(C)C1)NC(=O)OC(C)(C)C | 250 (≈ 589 µM)

Assay: Metabolic stability in mouse liver microsomes assessed as compound remaining after 1 hr
Format: ADME
Details: read-out: Stability

SMILES | remaining at 1 h [%]
CC(C)C[C@@H](/C=C/CC(=O)NC1CC(C)(C)N([O])C(C)(C)C1)NC(=O)OCC[S+]([O-])CC1(C)COC1 (mixture of isomers) | 16
